Data taken from patent US20240269194A1, “COMPOSITIONS AND METHODS FOR ISLET CELL TRANSPLANTS” (City of Hope, priority 2021, published 2024).
Entries after “also recorded” stand apart in the source; their conditions may differ.

Columns and labels:
gastrin receptor CCKBR = target: T1, gastrin receptor CCKBR (Homo sapiens, UniProt P32239); experiment: Gastrin receptor blockade with YM022, qPCR in human islets; assay type: cell-based; conditions: YM022 together with 100 nM gastrin, donors with high HbA1c
T1 construct: Human islets express the gastrin receptor CCKBR; from tissue; host or cells: isolated human pancreatic islets from donors
T1 sequence (P32239 whole entry): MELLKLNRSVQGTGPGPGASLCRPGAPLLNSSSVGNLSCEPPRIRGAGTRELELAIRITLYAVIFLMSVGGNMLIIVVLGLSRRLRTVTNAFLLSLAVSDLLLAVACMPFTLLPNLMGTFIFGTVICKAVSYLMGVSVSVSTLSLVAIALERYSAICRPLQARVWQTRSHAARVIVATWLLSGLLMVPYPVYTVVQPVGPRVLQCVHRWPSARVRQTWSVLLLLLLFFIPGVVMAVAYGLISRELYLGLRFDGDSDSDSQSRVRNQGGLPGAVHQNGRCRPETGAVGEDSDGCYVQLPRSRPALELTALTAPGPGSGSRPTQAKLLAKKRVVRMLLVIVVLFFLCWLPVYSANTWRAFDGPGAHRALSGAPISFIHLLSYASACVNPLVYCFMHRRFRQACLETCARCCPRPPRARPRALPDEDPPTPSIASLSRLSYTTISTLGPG
Method: To establish that gastrin effect is mediated through activation of the gastrin receptor CCKBR, islets were treated with either 100 nM gastrin or 100 nM gastrin together with the CCKBR antagonist YM022.

T1D patients = assay type: in vivo, human
Method: Gastrin is a natural hormone that is secreted by the stomach and is involved in fetal pancreas development. […] Building on these observations, it was tested whether gastrin treatment will improve islet engraftment, induced beta cell expansion/function, and enhanced islet transplant outcomes in T1D individuals. A gastrin analogue (GAST-17) was produced and obtained FDA-IND approval to evaluate its safety and efficacy in a Phase I/II, prospective, single-arm trial to improve outcomes in T1D recipients undergoing a single islet transplant and two 30-day courses for GAST-17. The trial has been initiated with the first two treated individuals achieving insulin independence with roughly half of the islet dose normally required.
The success of clinical islet transplantation depends on transplantation of adequate islet mass and minimizing graft loss secondary to ischemia and inflammation. After infusion into the portal vein, islets are exposed to damaging inflammatory factors (the so-called instant blood-mediated inflammatory reaction, IBMIR). This involves activation of the complement and coagulation cascades, ultimately resulting in clot formation and infiltration of leukocytes into the islets. The IBMIR may be triggered by islet surface molecules, such as tissue factor and collagen residues that are normally not in direct contact with the blood. Also, ischemic stress during islet isolation results in production of inflammatory mediators by islets. Strategies to mitigate the IBMIR include the treatment of recipients with anticoagulants or pre-conditioning islets with anti-inflammatory agents. As inflammatory reactions are thought to negatively impact islet engraftment in the early post-transplant period, etanercept, a TNFα mitigator, and anakinra, an IL-1 receptor antagonist, are used to limit acute transplant-related inflammation. […]
Treatment course 1. […] Subjects are monitored for adverse effects and assessed for preliminary efficacy at 1, 2.5, and 6 months after starting the first course of GAST-17. […]

non-diabetic Wistar rats = experiment: Beta and alpha cell content of pancreas by laser scanning cytometry after 30-day treatment; assay type: in vivo, rat
Method: The islet expansion effects of GAST-17 were evaluated in non-diabetic Wistar rats (10 males and 10 females in each group). At the end of 30-day treatment, animals were terminated, pancreata excised and immuno-stained for beta and alpha cell content using laser scanning cytometry (LSC) (FIGS. 2A and 2B).
Gastrin analogue, GAST-17, stimulates beta cell expansion. T2D individuals display a loss of beta cell numbers and function. Increasing beta cell mass is considered a possible therapy for T2D (37). The islet expansion effects of GAST-17 were evaluated in non-diabetic Wistar rats (10 males and 10 females in each group). At the end of 30-day treatment, pancreata were excised and stained for beta and alpha cell content counting using laser scanning cytometry (FIGS. 24A and 24B).

[1] = system: transplanted human islets; experiment: Human islets transplanted to livers of NOD mice: 18F-TCE4 microPET, insulin staining, blood glucose; assay type: in vivo, mouse; conditions: 150 μg/kg/dose three times daily, 30 days
Method: Isolated human islets were transplanted (Tx) to the livers of NOD mice followed by GAST-17 treatment for 30 days (150 μg/kg/dose, injected three times daily) (Tx+Treated, n=7) and compared to mice receiving islet transplant alone (Tx only, n=5) and untreated controls (Normal, n=5). After completion of treatment, whole mice and organs of interest were imaged (in vivo and ex vivo) with ^18F-TC-Exendin-4 (TCE4) using microPET and a high specific activity labeling technique developed at COH for targeting islets (49). […] Beta cell mass was calculated as percent beta cell area of the total cell surface area found on immunolabeled tissue sections. Data from 4 livers from mice treated with islet transplant alone (“−Gastrin”) and five livers from mice treated with islet transplant and gastrin treatment (“+Gastrin”) (˜32 slides per liver) were assessed.
Gastrin analogue, GATS-17, promotes expansion/neogenesis of transplanted human islets. Isolated human islets were transplanted (Tx) into livers of NOD/SCID mice followed by GAST-17 treatment for 30 days (150 μg/kg/dose, injected three times daily) (Tx+Treated, n=7) and compared to mice receiving islet transplant alone (Tx only, n=5) and untreated controls (Normal, n=5). After completion of treatment, whole mice and organs of interest were imaged (in vivo and ex vivo) with ^18F-TC-Exendin-4 (TCE4) using microPET (a high specific activity labeling technique developed at COH for targeting islets).

human islets [2] = experiment: qPCR gene expression in isolated human islets treated for 48 hours; assay type: cell-based
Method: Isolated human islets from 11 donors with varied glycemic control (HbA1c 5.2-10.4) were treated with GAST-17 for 48 hours and gene expression was analyzed by qPCR. […] Gene expression levels were not increased in islets from donors with an HbA1c <6.0 (FIG. 9). The increase in insulin mRNA correlated with the HbA1c levels, with higher insulin transcripts seen in islets from donors with more elevated HbA1c (FIG. 10).

human islets [3] = experiment: Long-term human islet culture with and without GAST-17, inflammatory gene expression; assay type: cell-based; conditions: non-diabetic donors, long-term culture (1516 days), 21% oxygen
Method: Long-term islet culture is associated with expression of inflammatory cytokines and islet stress/damage. Human islets from non-diabetic donors were cultured with and without GAST-17 long-term (1516 days) at normal oxygen concentrations (21%).

human islets [4] = experiment: Human islets challenged with inflammatory cytokines, glucose-mediated insulin secretion; assay type: cell-based; conditions: inflammatory cytokine challenge
Method: Gastrin is expressed in insulin^+ and somatostatin^+ cells in islets from people with T2D. As noted, gastrin increased insulin/somatostatin in delta cells, and this correlated positively with islet donor A1c levels (64). Extending these published and new findings, human islets were challenged with inflammatory cytokines (to mimic the harsh environment of transplantation) in the presence and absence of GAST-17 and glucose-mediated insulin secretion was determined.

[5] = donors HbA1c >6.0 (n=5), P<0.0001

Molecule	insulin, somatostatin and glucagon mRNA levels (gastrin receptor CCKBR)	insulin independence (T1D patients; first two T1D patients, single islet transplant <6,100 IEQ/kg)	engraftment and blood glucose normalization (T1D patients; two T1D individuals, 15 μg/kg twice daily, month 1 and 7, <6,100 IEQ/kg)	time to insulin freedom (T1D patients; two patients, single IT (<6,100 IEQ/kg BW))	percentage of alpha cells (non-diabetic Wistar rats; 30-day treatment vs controls)	average percentage of beta cells of total cells per slide (non-diabetic Wistar rats; 30-day treatment, all treatment groups vs controls)	native beta cell expansion, ex vivo imaging of the pancreas ([1]; p=0.000063)	18F-TCE4 uptake by islet grafts in liver, in vivo (whole body images) ([1]; vs control group, p=0.000015)	18F-TCE4 uptake by islet grafts, ex vivo (excised liver) ([1]; vs control group, p=0.000036)	gene expression levels (insulin, somatostatin, glucagon) (human islets [2]; donors HbA1c <6.0)	insulin transcripts (human islets [2]; [5])	somatostatin transcripts (human islets [2]; [5])	glucagon transcripts (human islets [2]; donors HbA1c >6.0 (n=5), P<0.02)	mRNA levels of transcription factors MAFA, MNX1, NKX2.2, NKX6.1, PDX1 and HHEX (human islets [2]; only in HbA1c >6.0 group)	expression of IL-10 (human islets [3])	islet expression of inflammatory genes (human islets [3])	glucose-mediated insulin secretion (human islets [4])	human islet damage from inflammatory cytokines (human islets [4])	insulin+/somatostatin+ cell numbers (human islets [4])
Cc1cccc(NC(=O)N[C@@H]2N=C(c3ccccc3)c3ccccc3N(CC(=O)c3ccccc3C)C2=O)c1 [YM022]	remained un-changed																		
[Leu^15] Gastrin-17 [GAST-17]		achieving insulin independence with half of the islet mass normally required	rapid engraftment and total normalization of blood glucose	achieved insulin freedom within two weeks	did not change	significantly increased	significant expansion	significantly increased; also recorded: significantly higher	significantly increased; also recorded: significantly higher	not increased	significant increase	significant increase	significant increase	significant increases	increased expression of IL-10	reduced islet expression of inflammatory genes	enhanced insulin secretion	reduced human islet damage from inflammatory cytokines	increased insulin+/somatostatin+ cell numbers
